7 compounds from patent US8017602B2, “N-(2-(2-(5-hydroxy-3-oxo-3,4-dihydro-2H-benzo[b][1,4]oxazin-8-yl)ethylamino)ethyl)-3-(phenethoxy)propanamide derivatives, processes for their preparation, pharmaceutical compositions containing them and their use in therapy” (AstraZeneca AB, priority 2008, dated 2011) can be followed below.

One assay addresses T1, Adrenergic β2 (Homo sapiens, UniProt P07550).
T1 construct: Adherent H292 cells were removed from tissue culture flasks; endogenous in cells; host or cells: H292 cells
Nature of the assay: Adrenergic β2 mediated cAMP production in H292 cells (AlphaScreen cAMP detection). The format is cell-based. The settings on record: for β2 Int Act: Intrinsic Activity, fraction relative to the maximum activity determined for formoterol; for EC50: cAMP production, 60 min at room temperature, 300 μM rolipram, read-out: β2 pEC50 (converted). On the procedure: H292 cells were grown in 225 cm2 flasks incubator at 37° C., 5% CO2 in RPMI medium containing, 10% (v/v) FBS (foetal bovine serum) and 2 mM L-glutamine.
Adherent H292 cells were removed from tissue culture flasks by treatment with Accutase™ cell detachment solution for 15 min. Flasks were incubated for 15 min in a humidified incubator at 37° C., 5% CO2. Detached cells were re-suspended in RPMI media (containing 10% (v/v) FBS and 2 mM L-glutamine) at […]. 10000 cells in 100 μl were added to each well of a tissue-culture-treated 96-well plate and the cells incubated overnight in a humidified incubator at 37° C., 5% CO2. The culture media was removed and cells were washed twice with 100 μl assay buffer and replaced with 50 μL assay buffer (HBSS solution containing 10 mM HEPES pH7.4 and 5 mM glucose). Cells were rested at room temperature for 20 min after which time 25 μl of rolipram (1.2 mM made up in assay buffer containing 2.4% (v/v) dimethylsulphoxide) was added. Cells were incubated with rolipram for 10 min after which time test compounds were added and the cells were incubated for 60 min at room temperature. The final rolipram concentration in the assay was 300 μM and final vehicle concentration was 1.6% (v/v) dimethylsulphoxide. The reaction was stopped by removing supernatants, washing once with 100 μL assay buffer and replacing with 50 μL lysis buffer. The cell monolayer was frozen at −80° C. for 30 min (or overnight).
AlphaScreen™ cAMP Detection
The concentration of cAMP (cyclic adenosine monophosphate) in the cell lysate was determined using AlphaScreen™ methodology. The frozen cell plate was thawed for 20 min on a plate shaker then 10 μl of the cell lysate was transferred to a 96-well white plate. 40 μL of mixed AlphaScreen™ detection beads pre-incubated with biotinylated cAMP, was added to each well and the plate incubated at room temperature for 10 h in the dark. The AlphaScreen™ signal was measured using an EnVision spectrophotometer (Perkin-Elmer Inc.) with the recommended manufacturer's settings. cAMP concentrations were determined by reference to a calibration curve determined in the same experiment using standard cAMP concentrations. Concentration response curves for agonists were constructed and data was fitted to a four parameter logistic equation to determine both the pEC50 and Intrinsic Activity. Intrinsic Activity was expressed as a fraction relative to the maximum activity determined for formoterol in each experiment.

Assay [1] deals with T2, recombinant human adrenergic beta 1 receptors (Homo sapiens, UniProt P08588).
T2 construct: purchased Euroscreen
T2 sequence (P08588 whole entry): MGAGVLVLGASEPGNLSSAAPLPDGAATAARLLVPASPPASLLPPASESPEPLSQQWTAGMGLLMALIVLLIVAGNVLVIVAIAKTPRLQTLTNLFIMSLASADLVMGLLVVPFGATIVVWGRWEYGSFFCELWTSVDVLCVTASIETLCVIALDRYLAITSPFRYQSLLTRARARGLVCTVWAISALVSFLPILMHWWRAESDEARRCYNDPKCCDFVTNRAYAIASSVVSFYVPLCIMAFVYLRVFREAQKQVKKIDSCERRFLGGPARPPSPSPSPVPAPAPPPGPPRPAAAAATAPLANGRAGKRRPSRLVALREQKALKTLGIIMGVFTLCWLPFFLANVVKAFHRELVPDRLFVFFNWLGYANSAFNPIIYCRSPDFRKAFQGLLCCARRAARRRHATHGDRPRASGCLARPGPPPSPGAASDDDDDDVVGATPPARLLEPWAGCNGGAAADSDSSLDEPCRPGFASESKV
Description: Adrenergic β1 selectivity binding assay ([125I]-Iodocyanopindolol). Conditions: inhibition of [125I]-Iodocyanopindolol binding, human β1 membranes; read-out: β1 bind p IC50 (converted). On the procedure:
Membranes containing recombinant human adrenergic beta 1 receptors were obtained from Euroscreen. These were diluted in Assay Buffer (50 mM HEPES, 1 mM EDTA, 120 mM NaCl, 0.1% gelatin, pH 7.4) to provide a final concentration of membranes that gave a clear window between maximum and minimum specific binding.
Assays were performed in U-bottomed 96-well polypropylene plates. 10 μL [^125I]-Iodocyanopindolol (0.036 nM final concentration) and 10 μL of test compound (10× final concentration) were added to each test well. For each assay plate 8 replicates were obtained for [^125I]-Iodocyanopindolol binding in the presence of 10 μl vehicle (10% (v/v) DMSO in Assay Buffer; defining maximum binding) or 10 μl Propranolol (10 μM final concentration; defining non-specific binding (NSB)). Membranes were then added to achieve a final volume of 100 μL. The plates were incubated for 2 h at room temperature and then filtered onto PEI coated GF/B filter plates, pre-soaked for 1 h in Assay Buffer, using a 96-well plate Tomtec cell harvester. Five washes with 250 μL wash buffer (50 mM HEPES, 1 mM EDTA, 120 mM NaCl, pH 7.4) were performed at 4° C. to remove unbound radioactivity. The plates were dried then sealed from underneath using Packard plate sealers and MicroScint-O (50 μl) was added to each well. The plates were sealed (TopSeal A) and filter-bound radioactivity was measured with a scintillation counter (TopCount, Packard BioScience) using a 3-minute counting protocol.
Total specific binding (B0) was determined by subtracting the mean NSB from the mean maximum binding. NSB values were also subtracted from values from all other wells. […] Data was fitted to a four parameter logistic equation to determine the compound potency, which was expressed as pIC50 (negative log molar concentration inducing 50% inhibition of [^125I]-Iodocyanopindolol binding).

The structures appear in SMILES notation. Structures can show the parent of a compound that is named as a salt.

T1 sequence (P07550 whole entry): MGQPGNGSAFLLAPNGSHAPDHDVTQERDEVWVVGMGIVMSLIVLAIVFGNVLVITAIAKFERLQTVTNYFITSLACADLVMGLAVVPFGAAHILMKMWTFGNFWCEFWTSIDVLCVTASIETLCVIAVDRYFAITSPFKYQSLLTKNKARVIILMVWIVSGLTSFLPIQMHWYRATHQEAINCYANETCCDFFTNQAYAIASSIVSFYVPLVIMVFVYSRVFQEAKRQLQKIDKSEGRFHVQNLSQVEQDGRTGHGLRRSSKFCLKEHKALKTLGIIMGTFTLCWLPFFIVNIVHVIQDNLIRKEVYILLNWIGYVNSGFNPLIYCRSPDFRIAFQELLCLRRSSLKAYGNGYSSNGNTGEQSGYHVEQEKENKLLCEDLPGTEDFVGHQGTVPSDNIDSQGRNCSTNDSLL

Turning to `CCC[C@@H](C)N(CCNCCc1ccc(O)c2c1OCC(=O)N2)C(=O)CCOCCc1cccc(-c2cnn(C(C)C)c2)c1` [Example 21, (R)—N-(2-(2-(5-Hydroxy-3-oxo-3,4-dihydro-2H-benzo[b][1,4]oxazin-8-yl)ethylamino)ethyl)-3-(3-(1-isopropyl-1H-pyrazol-4-yl)phenethoxy)-N-(pentan-2-yl)propanamide Trifluoroacetic Acid Salt], at Adrenergic β2, the “β2 Int Act” value came to 1.00 and the EC50 is 12.6 nM. For the same compound, the IC50 in assay [1] was 6310 nM.

Take `CC(C)n1cc(-c2cccc(CCOCCC(=O)N(CCNCCc3ccc(O)c4c3OCC(=O)N4)C3CCCC3)c2)cn1` [Example 22, N-Cyclopentyl-N-(2-(2-(5-hydroxy-3-oxo-3,4-dihydro-2H-benzo[b][1,4]oxazin-8-yl)ethylamino)ethyl)-3-(3-(1-isopropyl-1H-pyrazol-4-yl)phenethoxy)propanamide Trifluoroacetic Acid Salt]: at Adrenergic β2, the “β2 Int Act” value stood at 0.90 and the EC50 was 7.94 nM. In addition, the IC50 in assay [1] was 5010 nM.

In the case of `CCn1cc(-c2cccc(CCOCCC(=O)N(CCNCCc3ccc(O)c4c3OCC(=O)N4)C3CCCC3)c2)cn1` [Example 24, N-Cyclopentyl-3-(3-(1-ethyl-1H-pyrazol-4-yl)phenethoxy)-N-(2-(2-(5-hydroxy-3-oxo-3,4-dihydro-2H-benzo[b][1,4]oxazin-8-yl)ethylamino)ethyl)propanamide Trifluoroacetic Acid Salt], on Adrenergic β2, the “β2 Int Act” value was 0.95 and the EC50 is 7.94 nM. For the same compound, the IC50 in assay [1] was 5010 nM.

Turning to `CCn1cc(-c2cccc(CCOCCC(=O)N(CCNCCc3ccc(O)c4c3OCC(=O)N4)[C@H](C)C(C)(C)C)c2)cn1` [Example 25, (R)—N-(3,3-Dimethylbutan-2-yl)-3-(3-(1-ethyl-1H-pyrazol-4-yl)phenethoxy)-N-(2-(2-(5-hydroxy-3-oxo-3,4-dihydro-2H-benzo[b][1,4]oxazin-8-yl)ethylamino)ethyl)propanamide Trifluoroacetic Acid Salt], on Adrenergic β2, the “β2 Int Act” value is recorded as 0.90 and the EC50 was 12.6 nM. The IC50 in assay [1] is above 10000 nM.

As for `C[C@@H](N(CCNCCc1ccc(O)c2c1OCC(=O)N2)C(=O)CCOCCc1cccc(-c2cnn(C)c2)c1)C(C)(C)C` [Example 26, (R)—N-(3,3-Dimethylbutan-2-yl)-N-(2-(2-(5-hydroxy-3-oxo-3,4-dihydro-2H-benzo[b][1,4]oxazin-8-yl)ethylamino)ethyl)-3-(3-(1-methyl-1H-pyrazol-4-yl)phenethoxy)propanamide Trifluoroacetic Acid Salt], at Adrenergic β2, the “β2 Int Act” value is 0.88 and the EC50 was 12.6 nM. In addition, the IC50 in assay [1] was above 10000 nM.

With `Cc1nc(-c2cccc(CCOCCC(=O)N(CCNCCc3ccc(O)c4c3OCC(=O)N4)C3CCCCC3)c2)no1` [Example 27, N-Cyclohexyl-N-(2-(2-(5-hydroxy-3-oxo-3,4-dihydro-2H-benzo[b][1,4]oxazin-8-yl)ethylamino)ethyl)-3-(3-(5-methyl-1,2,4-oxadiazol-3-yl)phenethoxy)propanamide Trifluoroacetic Acid Salt], at Adrenergic β2, the “β2 Int Act” value stood at 0.91 and the EC50 was 15.8 nM. Moreover, the IC50 in assay [1] was above 10000 nM.

Turning to `CCn1cc(-c2cccc(CCOCCC(=O)N(CCNCCc3ccc(O)c4c3OCC(=O)N4)C3CCCCC3)c2)cn1` [Example 28, N-Cyclohexyl-3-(3-(1-ethyl-1H-pyrazol-4-yl)phenethoxy)-N-(2-(2-(5-hydroxy-3-oxo-3,4-dihydro-2H-benzo[b][1,4]oxazin-8-yl)ethylamino)ethyl)propanamide], on Adrenergic β2, the “β2 Int Act” value is given as 0.90 and the EC50 is 6.31 nM. For the same compound, in assay [1], the IC50 was above 10000 nM.
